Results from ChEMBL document CHEMBL4507315 (2021).

Columns and labels:
[1] = biological target: Alpha-2A adrenergic receptor (Homo sapiens) (UniProt P08913); details: Compound concentration 10.0 uM
[2] = biological target: Cyclin-dependent kinase 11B (Homo sapiens) (UniProt P21127); details: Compound concentration 100.0 nM
[3] = biological target: Serine/threonine-protein kinase 32C (Homo sapiens) (UniProt Q86UX6); details: Compound concentration 100.0 nM
[4] = biological target: Mitogen-activated protein kinase 12 (Homo sapiens) (UniProt P53778); details: Compound concentration 100.0 nM
[5] = biological target: Ephrin type-B receptor 6 (Homo sapiens) (UniProt O15197); details: Compound concentration 100.0 nM
[6] = biological target: Serine/threonine-protein kinase PknB (Mycobacterium tuberculosis) (UniProt P9WI81); details: Compound concentration 100.0 nM
[7] = biological target: Muscarinic acetylcholine receptor M4 (Homo sapiens) (UniProt P08173); details: Compound concentration 10.0 uM
[8] = tested on: Tyrosine-protein kinase ABL1 (Homo sapiens), P00519 [E255K]; details: Compound concentration 100.0 nM
[9] = biological target: Ephrin type-A receptor 1 (Homo sapiens) (UniProt P21709); details: Compound concentration 100.0 nM
[10] = biological target: Mitogen-activated protein kinase kinase kinase 10 (Homo sapiens) (UniProt Q02779); details: Compound concentration 100.0 nM
[11] = biological target: Serine/threonine-protein kinase MARK1 (Homo sapiens) (UniProt Q9P0L2); details: Compound concentration 100.0 nM
[12] = biological target: Mitogen-activated protein kinase 3 (Homo sapiens) (UniProt P27361); details: Compound concentration 100.0 nM
[13] = biological target: Protein-tyrosine kinase 6 (Homo sapiens) (UniProt Q13882); details: Compound concentration 100.0 nM
[14] = biological target: Serine/threonine-protein kinase Nek1 (Homo sapiens) (UniProt Q96PY6); details: Compound concentration 100.0 nM
[15] = biological target: MAP kinase-activated protein kinase 2 (Homo sapiens) (UniProt P49137); details: Compound concentration 100.0 nM
[16] = biological target: Bone morphogenetic protein receptor type-2 (Homo sapiens) (UniProt Q13873); details: Compound concentration 100.0 nM
[17] = biological target: Cyclin-G-associated kinase (Homo sapiens) (UniProt O14976); details: Compound concentration 100.0 nM
[18] = biological target: Tyrosine-protein kinase HCK (Homo sapiens) (UniProt P08631); details: Compound concentration 100.0 nM
[19] = biological target: Glycogen synthase kinase-3 alpha (Homo sapiens) (UniProt P49840); details: Compound concentration 100.0 nM
[20] = biological target: Protein kinase C eta type (Homo sapiens) (UniProt P24723); details: Compound concentration 100.0 nM
[21] = biological target: Phosphatidylinositol 4,5-bisphosphate 3-kinase catalytic subunit gamma isoform (Homo sapiens) (UniProt P48736); details: Compound concentration 100.0 nM
[22] = biological target: Vascular endothelial growth factor receptor 2 (Homo sapiens) (UniProt P35968); details: Compound concentration 100.0 nM
[23] = biological target: Serine/threonine-protein kinase 16 (Homo sapiens) (UniProt O75716); details: Compound concentration 100.0 nM
[24] = biological target: Serine/threonine-protein kinase OSR1 (Homo sapiens) (UniProt O95747); details: Compound concentration 100.0 nM
[25] = biological target: Serine/threonine-protein kinase Sgk1 (Homo sapiens) (UniProt O00141); details: Compound concentration 100.0 nM
[26] = biological target: Myosin-IIIa (Homo sapiens) (UniProt Q8NEV4); details: Compound concentration 100.0 nM
[27] = biological target: NUAK family SNF1-like kinase 1 (Homo sapiens) (UniProt O60285); details: Compound concentration 100.0 nM
[28] = biological target: Tyrosine-protein kinase JAK1 (Homo sapiens) (UniProt P23458); details: Compound concentration 100.0 nM
[29] = biological target: Leukocyte tyrosine kinase receptor (Homo sapiens) (UniProt P29376); details: Compound concentration 100.0 nM
[30] = biological target: 5-hydroxytryptamine receptor 1B (Homo sapiens) (UniProt P28222); details: Compound concentration 10.0 uM
[31] = biological target: Calcium/calmodulin-dependent protein kinase type IV (Homo sapiens) (UniProt Q16566); details: Compound concentration 100.0 nM
[32] = tested on: Tyrosine-protein kinase ABL1 (Homo sapiens), P00519 [F317I]; details: Compound concentration 100.0 nM
[33] = biological target: Rhodopsin kinase GRK1 (Homo sapiens) (UniProt Q15835); details: Compound concentration 100.0 nM
[34] = biological target: Mitogen-activated protein kinase kinase kinase 19 (Homo sapiens) (UniProt Q56UN5); details: Compound concentration 100.0 nM
[35] = biological target: Interleukin-1 receptor-associated kinase 3 (Homo sapiens) (UniProt Q9Y616); details: Compound concentration 100.0 nM
[36] = biological target: Insulin receptor-related protein (Homo sapiens) (UniProt P14616); details: Compound concentration 100.0 nM
[37] = biological target: Rho-associated protein kinase 1 (Homo sapiens) (UniProt Q13464); details: Compound concentration 100.0 nM
[38] = biological target: Mitogen-activated protein kinase kinase kinase 6 (Homo sapiens) (UniProt O95382); details: Compound concentration 100.0 nM
[39] = biological target: Tyrosine-protein kinase FRK (Homo sapiens) (UniProt P42685); details: Compound concentration 100.0 nM
[40] = biological target: D(3) dopamine receptor (Homo sapiens) (UniProt P35462); details: Compound concentration 10.0 uM
[41] = biological target: Serine/threonine-protein kinase Chk2 (Homo sapiens) (UniProt O96017); details: Compound concentration 100.0 nM
[42] = biological target: Non-receptor tyrosine-protein kinase TNK1 (Homo sapiens) (UniProt Q13470); details: Compound concentration 100.0 nM
[43] = biological target: Receptor-interacting serine/threonine-protein kinase 1 (Homo sapiens) (UniProt Q13546); details: Compound concentration 100.0 nM
[44] = biological target: Tyrosine-protein kinase ABL1 (Homo sapiens) (UniProt P00519); details: Compound concentration 100.0 nM
[45] = biological target: Peripheral plasma membrane protein CASK (Homo sapiens) (UniProt O14936); details: Compound concentration 100.0 nM
[46] = biological target: Serine/threonine-protein kinase Nek5 (Homo sapiens) (UniProt Q6P3R8); details: Compound concentration 100.0 nM
Serine/threonine-protein kinase Nek5 (Homo sapiens), sequence (Q6P3R8 whole entry): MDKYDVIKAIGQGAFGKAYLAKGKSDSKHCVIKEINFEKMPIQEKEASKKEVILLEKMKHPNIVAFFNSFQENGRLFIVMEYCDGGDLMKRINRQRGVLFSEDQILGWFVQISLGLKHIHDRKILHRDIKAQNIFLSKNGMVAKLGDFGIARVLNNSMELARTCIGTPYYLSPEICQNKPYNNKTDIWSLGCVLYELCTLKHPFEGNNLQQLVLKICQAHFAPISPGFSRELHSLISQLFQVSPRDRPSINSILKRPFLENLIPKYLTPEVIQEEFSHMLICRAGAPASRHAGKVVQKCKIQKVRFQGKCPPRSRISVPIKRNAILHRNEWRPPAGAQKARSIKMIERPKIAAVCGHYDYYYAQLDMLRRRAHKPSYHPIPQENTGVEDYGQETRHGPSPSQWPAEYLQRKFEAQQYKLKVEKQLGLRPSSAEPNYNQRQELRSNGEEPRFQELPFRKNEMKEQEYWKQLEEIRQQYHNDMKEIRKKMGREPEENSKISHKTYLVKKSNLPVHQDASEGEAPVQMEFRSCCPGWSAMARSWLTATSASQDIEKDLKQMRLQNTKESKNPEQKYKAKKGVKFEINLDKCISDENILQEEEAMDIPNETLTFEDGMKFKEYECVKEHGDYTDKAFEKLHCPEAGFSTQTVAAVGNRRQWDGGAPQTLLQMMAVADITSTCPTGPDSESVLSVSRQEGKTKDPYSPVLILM

Bone morphogenetic protein receptor type-2 (Homo sapiens), sequence (Q13873 whole entry): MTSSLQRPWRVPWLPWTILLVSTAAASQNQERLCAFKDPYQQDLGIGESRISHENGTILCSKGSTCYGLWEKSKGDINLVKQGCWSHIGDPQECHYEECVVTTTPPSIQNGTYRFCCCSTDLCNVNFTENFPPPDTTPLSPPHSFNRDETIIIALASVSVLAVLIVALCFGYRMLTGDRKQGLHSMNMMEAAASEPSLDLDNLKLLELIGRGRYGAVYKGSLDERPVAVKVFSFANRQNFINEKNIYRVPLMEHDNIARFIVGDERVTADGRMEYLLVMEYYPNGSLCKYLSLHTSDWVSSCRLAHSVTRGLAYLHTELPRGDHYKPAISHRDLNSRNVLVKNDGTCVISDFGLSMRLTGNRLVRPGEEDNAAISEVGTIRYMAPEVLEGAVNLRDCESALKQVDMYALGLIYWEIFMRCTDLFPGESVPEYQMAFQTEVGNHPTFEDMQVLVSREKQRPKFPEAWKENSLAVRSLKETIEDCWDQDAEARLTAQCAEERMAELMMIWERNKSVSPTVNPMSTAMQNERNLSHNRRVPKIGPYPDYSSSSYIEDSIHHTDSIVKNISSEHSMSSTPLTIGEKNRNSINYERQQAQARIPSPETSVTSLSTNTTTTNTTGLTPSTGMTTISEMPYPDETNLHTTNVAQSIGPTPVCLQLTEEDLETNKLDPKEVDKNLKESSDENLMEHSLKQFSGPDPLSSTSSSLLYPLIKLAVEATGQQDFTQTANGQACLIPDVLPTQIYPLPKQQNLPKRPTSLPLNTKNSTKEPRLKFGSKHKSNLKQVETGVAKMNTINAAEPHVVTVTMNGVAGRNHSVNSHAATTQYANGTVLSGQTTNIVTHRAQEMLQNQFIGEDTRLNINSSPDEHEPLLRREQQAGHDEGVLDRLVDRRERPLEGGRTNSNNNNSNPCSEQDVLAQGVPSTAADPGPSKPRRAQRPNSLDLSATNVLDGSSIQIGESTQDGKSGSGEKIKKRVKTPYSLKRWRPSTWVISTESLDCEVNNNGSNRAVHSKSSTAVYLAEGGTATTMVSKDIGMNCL
Mitogen-activated protein kinase kinase kinase 6 (Homo sapiens), sequence (O95382 whole entry): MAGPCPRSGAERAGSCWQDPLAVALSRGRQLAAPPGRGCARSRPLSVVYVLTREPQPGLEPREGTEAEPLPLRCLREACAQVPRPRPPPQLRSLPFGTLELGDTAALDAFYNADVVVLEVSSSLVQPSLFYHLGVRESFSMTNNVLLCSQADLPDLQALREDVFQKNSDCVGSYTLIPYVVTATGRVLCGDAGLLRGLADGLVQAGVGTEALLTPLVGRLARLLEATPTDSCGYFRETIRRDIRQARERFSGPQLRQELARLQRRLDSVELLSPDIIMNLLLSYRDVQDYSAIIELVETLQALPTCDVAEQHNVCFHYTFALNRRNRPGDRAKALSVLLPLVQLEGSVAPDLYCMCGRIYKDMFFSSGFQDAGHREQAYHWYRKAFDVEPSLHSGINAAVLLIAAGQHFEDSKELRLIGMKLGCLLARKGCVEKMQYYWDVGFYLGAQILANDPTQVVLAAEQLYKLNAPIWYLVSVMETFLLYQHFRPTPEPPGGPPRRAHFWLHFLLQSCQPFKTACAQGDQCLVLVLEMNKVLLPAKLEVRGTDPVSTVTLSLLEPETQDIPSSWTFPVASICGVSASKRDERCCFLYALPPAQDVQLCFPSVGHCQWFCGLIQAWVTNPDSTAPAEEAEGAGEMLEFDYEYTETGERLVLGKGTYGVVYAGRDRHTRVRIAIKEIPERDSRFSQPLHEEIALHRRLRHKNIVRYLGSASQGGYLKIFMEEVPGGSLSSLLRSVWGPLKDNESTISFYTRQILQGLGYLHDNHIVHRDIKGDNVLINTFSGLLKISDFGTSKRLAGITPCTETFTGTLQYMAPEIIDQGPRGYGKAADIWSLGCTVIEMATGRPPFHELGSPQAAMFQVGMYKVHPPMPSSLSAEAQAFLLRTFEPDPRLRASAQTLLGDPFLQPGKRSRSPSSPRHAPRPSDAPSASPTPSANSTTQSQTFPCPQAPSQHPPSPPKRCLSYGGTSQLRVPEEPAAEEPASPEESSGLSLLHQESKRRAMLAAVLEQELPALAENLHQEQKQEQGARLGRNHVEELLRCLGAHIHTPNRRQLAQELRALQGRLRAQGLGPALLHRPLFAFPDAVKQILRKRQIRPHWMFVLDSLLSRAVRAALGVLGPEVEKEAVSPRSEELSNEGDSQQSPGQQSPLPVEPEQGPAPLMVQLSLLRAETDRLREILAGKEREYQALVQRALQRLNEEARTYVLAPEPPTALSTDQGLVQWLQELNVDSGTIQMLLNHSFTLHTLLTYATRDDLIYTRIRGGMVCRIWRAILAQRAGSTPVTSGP
D(3) dopamine receptor (Homo sapiens), sequence (P35462 whole entry): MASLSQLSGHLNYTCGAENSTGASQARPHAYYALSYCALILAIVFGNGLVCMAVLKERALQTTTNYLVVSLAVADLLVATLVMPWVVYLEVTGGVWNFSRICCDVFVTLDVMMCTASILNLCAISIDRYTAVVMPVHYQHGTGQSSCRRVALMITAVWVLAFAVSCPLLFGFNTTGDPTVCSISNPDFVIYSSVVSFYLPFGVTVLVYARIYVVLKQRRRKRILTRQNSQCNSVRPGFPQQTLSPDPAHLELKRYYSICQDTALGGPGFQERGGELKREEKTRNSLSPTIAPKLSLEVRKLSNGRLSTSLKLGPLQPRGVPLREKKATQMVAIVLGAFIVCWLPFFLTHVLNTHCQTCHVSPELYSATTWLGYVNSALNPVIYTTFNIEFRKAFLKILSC
Serine/threonine-protein kinase Sgk1 (Homo sapiens), sequence (O00141 whole entry): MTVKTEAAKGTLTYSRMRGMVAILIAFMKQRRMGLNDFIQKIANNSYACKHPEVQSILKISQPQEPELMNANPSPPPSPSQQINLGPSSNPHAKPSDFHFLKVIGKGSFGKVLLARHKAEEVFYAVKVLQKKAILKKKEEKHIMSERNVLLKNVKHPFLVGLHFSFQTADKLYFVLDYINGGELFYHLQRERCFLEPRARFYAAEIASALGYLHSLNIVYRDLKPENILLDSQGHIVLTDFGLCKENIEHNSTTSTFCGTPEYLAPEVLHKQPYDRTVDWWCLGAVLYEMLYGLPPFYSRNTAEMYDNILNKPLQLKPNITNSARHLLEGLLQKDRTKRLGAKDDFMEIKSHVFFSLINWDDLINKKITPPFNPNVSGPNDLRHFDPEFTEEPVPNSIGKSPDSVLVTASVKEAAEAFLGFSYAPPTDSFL
Tyrosine-protein kinase JAK1 (Homo sapiens), sequence (P23458 whole entry): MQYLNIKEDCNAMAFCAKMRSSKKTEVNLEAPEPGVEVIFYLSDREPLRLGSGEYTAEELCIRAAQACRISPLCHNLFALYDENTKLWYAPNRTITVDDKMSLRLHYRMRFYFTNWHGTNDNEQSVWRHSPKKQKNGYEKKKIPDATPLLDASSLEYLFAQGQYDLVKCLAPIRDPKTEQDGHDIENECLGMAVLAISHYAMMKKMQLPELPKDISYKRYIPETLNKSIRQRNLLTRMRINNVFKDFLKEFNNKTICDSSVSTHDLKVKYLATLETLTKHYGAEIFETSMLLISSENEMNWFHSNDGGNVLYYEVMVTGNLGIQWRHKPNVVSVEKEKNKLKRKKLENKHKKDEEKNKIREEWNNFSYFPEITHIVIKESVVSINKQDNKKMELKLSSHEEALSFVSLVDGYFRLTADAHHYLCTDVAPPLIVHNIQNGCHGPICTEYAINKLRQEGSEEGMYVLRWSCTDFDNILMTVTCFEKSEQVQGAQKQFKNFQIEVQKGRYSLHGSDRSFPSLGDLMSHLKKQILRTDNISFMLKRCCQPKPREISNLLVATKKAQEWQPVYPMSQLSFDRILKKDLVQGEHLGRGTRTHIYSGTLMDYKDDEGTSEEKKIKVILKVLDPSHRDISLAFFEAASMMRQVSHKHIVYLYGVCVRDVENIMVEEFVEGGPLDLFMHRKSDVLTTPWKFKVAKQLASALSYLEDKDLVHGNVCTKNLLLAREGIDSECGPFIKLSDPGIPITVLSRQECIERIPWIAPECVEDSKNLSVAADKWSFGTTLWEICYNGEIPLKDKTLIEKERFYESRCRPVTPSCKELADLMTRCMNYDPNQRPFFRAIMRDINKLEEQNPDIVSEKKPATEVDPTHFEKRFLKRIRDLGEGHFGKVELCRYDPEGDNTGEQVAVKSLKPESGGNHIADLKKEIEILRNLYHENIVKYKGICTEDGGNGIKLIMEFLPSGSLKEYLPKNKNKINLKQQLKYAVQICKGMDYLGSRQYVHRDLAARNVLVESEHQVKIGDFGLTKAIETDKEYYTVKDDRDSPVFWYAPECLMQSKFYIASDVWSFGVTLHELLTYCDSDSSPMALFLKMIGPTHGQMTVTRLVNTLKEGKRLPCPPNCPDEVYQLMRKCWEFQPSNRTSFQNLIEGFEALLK

O=C(NCCCC1CCCCC1)c1ccc(CNC(=O)c2cnn(-c3ccccc3)c2C(F)(F)F)cc1 [SR-321]
inactive: inhibition [1] -2.46% | residual activity [2] 100% | residual activity [3] 100% | residual activity [4] 100% | residual activity [5] 100% | residual activity [6] 100% | inhibition [7] 20.1% | residual activity [8] 92% | residual activity [9] 100% | residual activity [10] 87% | residual activity [11] 100% | residual activity [12] 93% | residual activity [13] 97% | residual activity [14] 58% | residual activity [15] 100% | residual activity [16] 100% | residual activity [17] 100% | residual activity [18] 100% | residual activity [19] 100% | residual activity [20] 100% | residual activity [21] 95% | residual activity [22] 97% | residual activity [23] 100% | residual activity [24] 91% | residual activity [25] 100% | residual activity [26] 98% | residual activity [27] 100% | residual activity [28] 100% | residual activity [29] 100% | inhibition [30] 9.89% | residual activity [31] 100% | residual activity [32] 100% | residual activity [33] 94% | residual activity [34] 89% | residual activity [35] 100% | residual activity [36] 100% | residual activity [37] 100% | residual activity [38] 100% | residual activity [39] 77% | inhibition [40] 2.65% | residual activity [41] 100% | residual activity [42] 88% | residual activity [43] 89% | residual activity [44] 88% | residual activity [45] 100% | residual activity [46] 100%

Nc1c(C(=O)NCc2ccc(C(=O)NCCCC3CCCCC3)cc2)cnn1-c1ccccc1 [SR-318]
inactive: inhibition [1] 4.08% | residual activity [2] 100% | residual activity [3] 90% | residual activity [4] 100% | residual activity [5] 100% | residual activity [6] 100% | inhibition [7] -4.14% | residual activity [8] 100% | residual activity [9] 100% | residual activity [10] 85% | residual activity [11] 79% | residual activity [12] 94% | residual activity [13] 96% | residual activity [14] 84% | residual activity [15] 100% | residual activity [16] 100% | residual activity [17] 100% | residual activity [18] 100% | residual activity [19] 100% | residual activity [20] 98% | residual activity [21] 100% | residual activity [22] 100% | residual activity [23] 100% | residual activity [24] 100% | residual activity [25] 100% | residual activity [26] 100% | residual activity [27] 100% | residual activity [28] 100% | residual activity [29] 100% | inhibition [30] 10.4% | residual activity [31] 98% | residual activity [32] 92% | residual activity [33] 100% | residual activity [34] 77% | residual activity [35] 94% | residual activity [36] 100% | residual activity [37] 100% | residual activity [38] 100% | residual activity [39] 100% | inhibition [40] 21.2% | residual activity [41] 88% | residual activity [42] 91% | residual activity [43] 100% | residual activity [44] 97% | residual activity [45] 78% | residual activity [46] 99%
